In brackets after ≈: the same amount, converted by molar mass.
How the values were obtained:
[1] = test system: Methicillin-Resistant Staphylococcus aureus strain ATCC 33591; conditions: MRSA ATCC 33591; determined previously; cited from earlier work
Protocol: The Methicillin-Resistant Staphylococcus aureus strain ATCC 33591, previously used in our laboratory for biofilms models, was used. […] Bacteria were grown overnight on tryptic soy agar (TSA) plates from frozen stock. Some colonies were then suspended in sterile PBS, adjusted to an OD620 nm of 0.5 (∼8 log10 CFU), and diluted 1:10 in PBS. The bacterial suspension was stored at 4°C until inoculation (1.5–2 h). Serial dilutions of the bacterial inoculum were plated on TSA to confirm the bacterial inoculum.

[2] = Renal tolerance of vancomycin regimen (serum creatinine); format: in vivo, New Zealand White rabbits
Protocol: Creatinine serum concentrations were measured in group A animals using a Fuji Dri-Chem analyzer (Fujifilm Corporation, Tokyo, Japan) with CRE-PIII slides, as per the manufacturer’s instructions.

[3] = Vancomycin serum pharmacokinetics and therapeutic monitoring in rabbits; conditions: 50 mg/kg IV every 12 h, Roche VANC3 assay
MRSA strain ATCC 33591 = format: in vivo, New Zealand White rabbits; conditions: surgical debridement at day 7 followed by 50 mg/kg IV vancomycin twice a day for 7 days, N = 5
Source text: Following general anesthesia, the animals were installed in a Class II biosafety cabinet. The operated leg was disinfected twice with 2% chlorhexidine gluconate alcohol solution (Qualiphar, Bornem, Belgium) and the leg was sterile draped. The joint was approached through a medial parapatellar incision. The medial meniscus was resected and 5 mm of the medial tibial plateau was removed using a high-speed burr. The cut height was confirmed using a spacer block. The bone surface was then further prepared using a custom tibial punch. After irrigation of the joint space with sterile saline, the final implants were impacted. The joint was then further irrigated with sterile saline. The joint capsule, subcutaneous tissues, and skin were closed separately with running sutures using a 3/0 polyester thread. The joints of groups B and C animals were inoculated by intra-articular injection of 100 μl of a 6.5 log10 CFU/ml MRSA suspension after the closure of the subcutaneous tissues. […] The wounds were then covered using an antiseptic spray and dressed.
Animals of groups C were operated on 1 week after the initial surgery. Following anesthesia, the operated leg was disinfected twice with 2% chlorhexidine gluconate alcohol solution and the leg was draped. The initial approach was re-used. Pus samples were collected immediately after the capsule was breached and stored on ice until analyzed. […]

## CN[C@H](CC(C)C)C(=O)N[C@H]1C(=O)N[C@@H](CC(N)=O)C(=O)N[C@H]2C(=O)N[C@H]3C(=O)N[C@H](C(=O)N[C@H](C(=O)O)c4cc(O)cc(O)c4-c4cc3ccc4O)[C@H](O)c3ccc(c(Cl)c3)Oc3cc2cc(c3O[C@@H]2O[C@H](CO)[C@@H](O)[C@H](O)[C@H]2O[C@H]2C[C@](C)(N)[C@H](O)[C@H](C)O2)Oc2ccc(cc2Cl)[C@H]1O [vancomycin, Vancomycin]
[1]
  MBEC: > 1024 µg/mL
  MIC: 1 µg/mL (≈ 0.69 µM)
[2]; NZW rabbits, 50 mg/kg IV vancomycin twice a day
  renal toxicity: No renal toxicity was observed
[2]; group A NZW rabbits, 50 mg/kg IV vancomycin twice a day for 7 days, Fuji Dri-Chem analyzer
  serum creatinine concentrations throughout the experiment: stable
[3]; group A NZW rabbits
  vancomycin serum concentration 12 h after the injections: ~0 µg/mL
[3]; group A non-infected NZW rabbits, 1st injection, trapezoid rule, mean, N = 5, SD 15.79
  AUC0–12 h following the first vancomycin injection: 213.0 µg·h/mL
MRSA strain ATCC 33591; 5.5 log10 CFU MRSA inoculum, p < 0.0001
  bacterial counts in all samples (bone, pus, implant) except the joint capsule, group C versus group B: significantly reduced
MRSA strain ATCC 33591; not statistically significant, p = 0.35
  mean difference in CFU counts in capsule samples, group C versus group B: 0.74 log10 CFU/g
